Earlier results on 1 molecule are cited in patent US20090209656A1, “DISINFECTION/SANITATION METHOD WHERE THE MATERIAL IS TREATED WITH A SOLUTION COMPRISING BENZYL ALCOHOL AND C2-3 ALCOHOL” (GE HEALTHCARE BIO-SCIENCES AB, priority 2006, published 2009).

For data set [1] the following is noted: acute toxicity.
The conditions of data set [2]: long-term exposure.

On to `OCc1ccccc1` [benzyl alcohol], for which the LD50 in data set [1] is 1610 mg/kg body weight. Also, the NOAEL in data set [2] is recorded as over 400 mg/kg body weight/day.

The term NOAEL denotes the highest dose or exposure tested at which no adverse effect was seen.
